Tests used:
Assay type in all cases: in vivo
Culex pipiens pallens = test: Activity of killing Culex pipiens pallens larvae; conditions: for Mortality: 10 ppm, 4th instar mosquito larvae in water, 24 h
Description: 2) Activity of killing Culexpipiens pallens larval: Culicides pallens, a normal indoor population. Weigh about 5 mg of the test compound into a penicillin vial, add 5 mL of acetone (or a suitable solvent), and shake to dissolve, i.e. 1000 μg·ml^−1 mother liquor. 0.5 mL mother liquor was removed and added into a 100 mL beaker containing […] of water. Ten 4th instar mosquito larvae were selected and poured into the beaker together with 10 mL of feeding liquid. The concentration of the liquid medicine was 10 μg·ml^−1. Place the treatment in the standard treatment room, and check the results 24 h. The blank control was an aqueous solution containing 0.5 mL of test solvent.

Helicoverpa armigera = test: Activity of killing Helicoverpa armigera (leaf soaking method); conditions: for Mortality: 600 ppm, third-instar larvae, corn leaf soaking, 72 hours
Description: 3) Activity of killing Helicoverpa armigera:Helicoverpa armigera, a normal population raised indoors. Test method: leaf soaking method. In the leaf soaking method, corn leaves are soaked in a liquid medicine prepared by acetone (600 ppm, 600 mg/L), ground and put into 24 holes after the liquid medicine is dried, one third-instar larva is inserted into each hole, 10 are used for each time, and three times are repeated, a total of 30 test insects are tested, mainly gastric toxicity and contact killing effects, and the feeding phenomenon of the larva is observed. Mortality was examined 72 hours later.

Mythimna separata Walker = test: Activity of killing Mythimna separata Walker (leaf dipping method); conditions: for Mortality: 4th instar larvae, corn leaf dipping, 24 hours
Description: 1) Activity of killing Mythimna separata Walker: Mythimna separata Walker, a normal population raised indoors. In the leaf dipping method, corn leaves are dipped in a liquid medicine ([…]) prepared by acetone, and the 4th instar larvae are inoculated after the liquid medicine, mainly for stomach toxicity and contact killing, and the feeding phenomenon of the larvae is observed. Mortality was examined 24 hours.

[1] = tested on: Ostrinia nubilalis Hubner; test: Activity of killing Ostrinia nubilalis Hubner (leaf soaking method); conditions: for Mortality: 600 ppm (table), 3rd instar larvae, corn leaf dipping, 72 hours
Description: 4) Activity of killing Ostrinia nubilalis Hubner: Ostrinia nubilalis Hubner, a normal population raised indoors. Test method: leaf soaking method. In the leaf dipping method, corn leaves are dipped in a liquid medicine prepared by acetone ([…]), 10 3rd instar larvae are inoculated into a culture dish after the liquid medicine is dried, and 30 test larvae are shared for three times, mainly gastric toxicity and contact killing effects, and the feeding phenomenon of the larvae is observed. Mortality was examined 72 hours later.

CC1CC(=O)C(C(=O)Nc2ccccc2)=C(Nc2ccccc2)C1 (centres unmarked) [compound 3b]
Mortality (Culex pipiens pallens): 70%
Mortality (Helicoverpa armigera): 15%
Mortality (Mythimna separata Walker; 600 ppm): 35%
Mortality [1]: 20%

CCC1CC(=O)C(C(=O)Nc2ccccc2)=C(Nc2ccccc2)C1 (centres unmarked) [compound 3d]
Mortality (Culex pipiens pallens): 20%
Mortality (Helicoverpa armigera): 100%
lethal rate to cotton bollworm (Helicoverpa armigera; concentration of 600 ppm): 100%
Mortality (Mythimna separata Walker; 200 ppm): 100%
lethal rate to armyworm (Mythimna separata Walker; concentration of 200 ppm): 100%
Mortality [1]: 100%
lethal rate to Ostrinia nubilalis Hubner ([1]; concentration of 600 ppm): 100%

CC1(C)CC(=O)C(C(=O)Nc2ccccc2)=C(Nc2ccccc2)C1 [compound 3c]
Mortality (Culex pipiens pallens): 80%
Mortality (Helicoverpa armigera): 10%
Mortality (Mythimna separata Walker; 600 ppm): 30%
Mortality [1]: 15%

CCCC1CC(=O)C(C(=O)Nc2ccccc2)=C(Nc2ccccc2)C1 (centres unmarked) [compound 3e]
Mortality (Culex pipiens pallens): 100%
lethal rate to Culex pipiens larvae (Culex pipiens pallens; concentration of 10 ppm): 100%
Mortality (Helicoverpa armigera): 25%
Mortality (Mythimna separata Walker; 600 ppm): 55%
Mortality [1]: 30%

— US11453638B2, “Process method for producing pesticide by using carbon dioxide” (Nankai University, priority 2018, dated 2022)
